Experimental findings from patent US4866084A, “Topsentin compounds effective against viruses and certain tumors” (Harbor Branch Oceanographic Institution, Inc., priority 1988, dated 1989) are described below.

Series [1] deals with P388 murine leukemia cells. Kind of series: P388 in vitro antitumor screen (MTT, 48 h). It is filed as cell-based. Here is the method: Cell Culture. P388 murine leukemia cells, obtained from the National Cancer Institute, Bethesda, MD, were maintained at 37° C. in 5% CO2 in humidified air. Growth medium was Roswell Park Memorial Institute medium 1640 supplemented with 10% heat-inactivated horse serum. Stock cultures of P388 cells were grown in antibiotic-free growth medium and were subcultured (10^5 cells/ml, 25 ml cultures in T-25 plastic tissue culture flasks) every 2-3 days. […] An appropriate volume of the dilution was transferred to duplicate wells in a 96-well plate, evaporated to dryness, and 200 μl of growth medium containing cells at a density of 1×10^5 cells/ml was added per well. […] For daily quality control, each technician determines the IC50 of fluorouracil for inhibition of P388 cell proliferation. After 48-hour incubations, cell number was determined with the MTT assay (below), calculated as a percent of untreated cell growth, converted to percent inhibition, and reported to the chemist requesting the screen.
Determination of IC50 Values. The initial determination of an IC50 value for inhibition of P388 cell proliferation with a crude, semipure, or pure sample was made by diluting the sample in methanol to the appropriate concentration and then serial 1:1 dilutions were made in duplicate in a 96-well plate, such that the final concentrations in the assay were […] μg/ml. After solvent was evaporated to dryness, cells were added to each well as described above. After 48-hour incubations, cell numbers were determined with the MTT assay, converted to percent control, plotted versus the log of the sample concentration. Curves were fitted by least-squares linear regression of logit-transformed data and the concentration of sample that inhibited cell proliferation by 50% was reported to the chemist requesting the screen.
MTT Assay for Cell Number. MTT or 3-(4,5-Dimethylthiazol-2-yl)-2,5-diphenyl-tetrazolium bromide is used in an established method (J. Immunol. Methods, 1983, 65: 55-63) to enumerate cells rather than "Coulter counting".

Series [2] deals with A549 human lung carcinoma cells. Kind of series: Human tumor cell line assay, A549. It counts as cell-based. The following applies: 120 h, read-out: A549: cell density compared with control growth; for activity at 500 fg/mL: 0.5 pg/ml. Here is the method:
(§1) HCT-8 human colon tumor cells are grown in RPM1 1640 medium (GIBCO). A549 human lung carcinoma cells and T47D human breast carcinoma cells are cultured in Dulbecco medium (Biologos, Inc.). All media are supplemented with 10% fetal bovine serum and contain 50 μg/ml gentamicin. All human tumor cell lines are incubated in 5% CO2 at 37° C. and subcultured once a week.
(§2) 2. Incubate in a CO2 -incubator for 48 hours.
(§3) 3. Add compound to each well and incubate for an additional 120 hours.
(§4) 4. Discard medium and stain with methylene blue (HCT-8) or crystal violet (A549 & T47D).
(§5) 5. Compare density of drug-treated well with that of the control (no drug added) as follows: ND (not detectable) >90%, 1+=75-90%, 2+=50-74%, 3+=25-49%, 4+=<25% of control growth.
(§6) Final conc. of Vinblastine or Vincristine control (use 2 μl/assay).
(§7) For solvents other than water, allow solvent to evaporate from tube or well in hood. Always run a solvent control in duplicate in the last two wells of each plate or four tubes for each rack of 72 or fewer tubes. Also run four wells or tubes with media and cells only per run of plates or tubes. When using volumes of aqueous solutions greater than 200 ml, dry sample and bring to desired concentration in media.

Series [3] relates to T47D human breast carcinoma cells. The series can be described thus: Human tumor cell line assay, T47D. It is filed as cell-based. Particulars: 120 h, read-out: T47D: cell density compared with control growth. Here is the method:
as §1, §2, §3, §4, §5, §6, §7

The next series concerns P388 leukemia. It is filed as in vivo, BDF1 mice. Particulars: days 1-5, mice. Here is the method: P388 leukemia obtained from DBA/2 mice was inoculated ip into BDF1 mice. The inoculum level was 10^6 cells in 0.1 ml. Mice were randomized on day 1 into groups of six mice since bacteriological check of tumor was negative. Test materials were dissolved or suspended in sterile 0.98% NaCl solution with the aid of absolute ethanol and "Tween-80", then administered ip, qD1-5, in a volume of 0.5 ml/mouse. Mice were weighed on days 1 & 5 to provide evidence of toxicity and deaths were recorded daily. Each test included appropriate numbers of untested control mice, one-dose level of the positive reference compound 5-fluorouracil and test material (four dose levels each). Test material were prepared fresh on day 1 and administered daily for five days. Quantity and consistency of test material precluded fresh preparation daily. Doses were derived from prior single treatment acute toxicity assays. The endpoints for therapeutic evaluation were mean and median survival time and long-term survivors on day 30. A 25% percent increase in life span (%ILS) was considered evidence of significant activity.

In series [4] the test system is Herpes simplex virus type 1 (HSV-1). Kind of series: Antiviral disc assay for HSV-1 (Table 3). It is filed as cell-based, Herpes simplex type 1 (HSV-1). Here is the method: (§8) a. Herpes simplex type 1 (HSV-1) replicates in the CV-1 cell line. CV-1 is a fibroblast-like cell culture derived from primary African green monkey cells.
(§9) a. Dilute the cells with EMEM to 4×10^5 cells/ml.
(§10) b. See 24-well trays with 0.5 ml per well. Cell concentration is […] cells.
(§11) c. Incubate at 37 C. for 1.5 hours.
(§12) d. The wells can be used over the next several days beginning the day after seeding (preferably 2, 3, or 4).
(§13) a. Remove medium from wells.
(§14) b. Infect well with at least 25 and no more than 80 plaque forming units (PFU) of virus.
(§15) c. Incubate infected cells at 37 C. for 1.5 hrs.
(§16) d. Pour off supernatant at end of incubation period.
(§17) e. Add 0.5 ml of methylcellulose overlay medium (MCO). MCO is a maintenance medium without phenol red made with 1% 4000 centipose methylcellulose. FBS is used at 5% level.
(§18) a. For drug evaluation wet filter paper discs (6 mm dia.) with approx. 0.02 ml of test compound. Allow solvent to evaporate for 20-30 mins. at ambient temperature, then place discs in the well containing CV-1 cells, virus and MCO.
(§19) b. Incubate tissue culture plates for 48 hrs. at 37 C.
(§20) c. After 48 hrs. place 0.5 ml NRMCO on each well. (NRMCO is a maintenance overlay medium without phenol red containing 0.1 mg neutral red dye/ml and 2% 15 Cps. methylcellulose.
(§21) d. Incubate plates at 37 C. and read the following day. Antiviral activity should be observed from two parameters. One is actual reduction in the number of plaques and two is the diminution in plaque diameter.
(§22) a. Antiviral activity (AVA) is scored from 0 to +++.
(§23) +++=complete inhibiton of plaque formation

For series [5], the system named is CV-1 cells. Kind of series: Cytotoxicity in antiviral disc assay (Table 3). It counts as cell-based, African green monkey. Also on record: key: 0 = no cytotoxicity, 16 = complete cell destruction. How it is done:
(§24) a. Herpes simplex type 1 (HSV-1) replicates in the CV-1 cell line. CV-1 is a fibroblast-like cell culture derived from primary African green monkey cells. a. For drug evaluation wet filter paper discs (6 mm dia.) with approx. 0.02 ml of test compound. Allow solvent to evaporate for 20-30 mins. at ambient temperature, then place discs in the well containing CV-1 cells, virus and MCO. b. Incubate tissue culture plates for 48 hrs. at 37 C. c. After 48 hrs. place 0.5 ml NRMCO on each well. (NRMCO is a maintenance overlay medium without phenol red containing 0.1 mg neutral red dye/ml and 2% 15 Cps. methylcellulose. b. Cytotoxicity (Cyt) 0=no visual or microscopic cytotoxicity 16=complete cell destruction 8, 10, 12, 14=partial cytotoxicity.

The test system of the next series is HSV-1. Kind of series: HSV-1 antiviral activity assay (Table 4). It counts as cell-based, Herpes simplex type 1 (HSV-1). Also on record: key to the marks not given beside the values. Here is the method:
as §8, §9, §10, §11, §12, §13, §14, §15, §16, §17, §18, §19, §20, §21, §22, §23

The subject of series [6] is CV-1 cells. Kind of series: Cytotoxicity in antiviral assay (Table 4). It counts as cell-based, African green monkey. Also noted: key: 0 = no cytotoxicity, 16 = complete cell destruction. Here is the method: as §24
Series [7] can be described thus: Biological activities of synthesized versus natural topsentin.
Where [8] appears, read: Mus musculus, P388 murine leukemia cells, 48 h, MTT.

Converted amounts (≈) assume the structure as drawn. Where two headings read alike, the source gives them in different places.

The IC50 is the concentration that gives 50% inhibition. The compound `O=C(c1nc(-c2c[nH]c3ccccc23)c[nH]1)c1c[nH]c2cc(O)ccc12` [Compound 1, Topsentin] gave an IC50 in series [1] (setting [8]) of 2 µg/mL (≈ 5.84 µM). Moreover, the activity at 500 fg/mL in series [2] and in series [3] was more than 90% each time. The activity at 50 pg/mL in series [2] and in series [3] was less than 25% each time. The activity at 5 pg/mL in [3] was in the range of 50 to 74%. Also, the activity at 20 pg/mL in series [3] is less than 25%. The “Survival % T/C” value in the series with P388 leukemia (37.5 mg/kg ip) is 111%; in the series on P388 leukemia (75 mg/kg ip), 116%; in the series on P388 leukemia (150 mg/kg ip) it was 132%; with P388 leukemia (300 mg/kg ip), 110%. The AVA entry is “+” in series [4] (Table 3, 50 ug/disk); “++” in series [4] (Table 3, 200 ug/disk); “+++” in the series with HSV-1 (Table 4, 2 μg/disk); “+++” with HSV-1 (Table 4, 20 μg/disk). In addition, the CYT. with CV-1 cells [5] (Table 3, 20 ug/disk) stood at 0; in the series on CV-1 cells [5] (Table 3, 50 ug/disk), 0; in the series on CV-1 cells [5] (Table 3, 200 ug/disk) it was 0; with CV-1 cells [6] (Table 4, 0.2 μg/disk) it was 0; with CV-1 cells [6] (Table 4, 2 μg/disk), 0; in the series on CV-1 cells [6] (Table 4, 20 μg/disk), 0. The “biological activities compared with natural topsentin” value in series [7] was “identical with natural topsentin in spectral data and in biological activities”.

With `O=C(c1nc(-c2c[nH]c3cc(Br)ccc23)c[nH]1)c1c[nH]c2cc(O)ccc12` [Compound 2, Bromotopsentin], it took 7 µg/mL (≈ 16.6 µM) to reach half-maximal inhibition in series [1] (setting [8]) (IC50). In addition, the activity at 500 fg/mL in [2] and in [3] was more than 90% throughout. Besides, the activity at 5 pg/mL in [2] (5 pg/ml) is more than 90%; in series [3] it was 50 to 74%. Moreover, the activity at 50 pg/mL in [2] and in series [3] was less than 25% in each case. In addition, the activity at 20 pg/mL in [3] was 25 to 49%. For the same compound, the entries for the “Survival % T/C” value with P388 leukemia (37.5 mg/kg ip), in the series on P388 leukemia (75 mg/kg ip) and in the series with P388 leukemia (150 mg/kg ip) were 105%, 111% and 116%, respectively. The AVA result in series [4] (Table 3, 200 ug/disk) was “++”; with HSV-1 (Table 4, 10 μg/disk), “++”. For the same compound, the CYT. in the series on CV-1 cells [5] (Table 3, 50 ug/disk) is on record as 0; with CV-1 cells [5] (Table 3, 200 ug/disk) it was 0; in the series on CV-1 cells [6] (Table 4, 5 μg/disk), 0; in the series on CV-1 cells [6] (Table 4, 10 μg/disk), 0.

With `O=C(C1=NC(c2c[nH]c3ccccc23)CN1)c1c[nH]c2cc(Br)ccc12` (stereo not drawn) [Compound 3, 4,5-dihydro-6"-deoxybromotopsentin], the “P388 IC50” value in series [1] (P388 murine leukemia cells, 48 h, MTT) was 4.0 µg/mL. The AVA entry in the series with HSV-1 (Table 4, 20 μg/disk) was “+++”.

In series [1] (setting [8]), `O=C(c1nc(-c2c[nH]c3cc(O)ccc23)c[nH]1)c1c[nH]c2ccccc12` [Compound 4, Isotopsentin] showed an IC50 of 4 µg/mL (≈ 11.7 µM). In the series on HSV-1 (Table 4, 20 μg/disk), the AVA entry is “+++”. The CYT. stood at 0 with CV-1 cells [6] (Table 4, 2 μg/disk) and 0 with CV-1 cells [6] (Table 4, 20 μg/disk).

Compound `O=C(c1nc(-c2c[nH]c3cc(O)ccc23)c[nH]1)c1c[nH]c2cc(O)ccc12` [Compound 5, Hydroxytopsentin] gave an IC50 in series [1] (setting [8]) of 0.3 µg/mL (≈ 0.837 µM). The CYT. with CV-1 cells [5] (Table 3, 20 ug/disk) was found to be 0; in the series on CV-1 cells [6] (Table 4, 2 μg/disk), 0; with CV-1 cells [6] (Table 4, 20 μg/disk), 0. The AVA entry with HSV-1 (Table 4, 20 μg/disk) is recorded as “++”.

Take `O=C(c1nc(-c2c[nH]c3ccccc23)c[nH]1)c1c[nH]c2ccc(O)cc12` [Compound 7, Neotopsentin]: the IC50 in [1] (setting [8]) was 2.5 µg/mL (≈ 7.3 µM). Also, the CYT. with CV-1 cells [5] (Table 3, 20 ug/disk) turned out to be 0; in the series with CV-1 cells [6] (Table 4, 20 μg/disk) it was 0.

For `O=C(c1nc(-c2c[nH]c3ccc(O)cc23)c[nH]1)c1c[nH]c2ccccc12` [Compound 8, Neoisotopsentin], in series [1] (setting [8]), 1.8 µg/mL (≈ 5.26 µM) corresponded to half-maximal inhibition (IC50). In addition, the CYT. stood at 0 in the series with CV-1 cells [5] (Table 3, 20 ug/disk) and 0 in the series with CV-1 cells [6] (Table 4, 20 μg/disk).

As to `O=C(c1nc(-c2c[nH]c3ccc(O)cc23)c[nH]1)c1c[nH]c2ccc(O)cc12` [Compound 9, Neohydroxytopsentin], the IC50 in series [1] (setting [8]) is more than 20 µg/mL. Also, the CYT. in the series on CV-1 cells [5] (Table 3, 20 ug/disk) is listed as 0; in the series with CV-1 cells [6] (Table 4, 20 μg/disk), 0.

As a reminder, the inhibition is the share of the control response that was lost under treatment. Take `O=c1[nH]cc(F)c(=O)[nH]1` [fluorouracil, 5-fluorouracil, reference compound]: the inhibition at 0.2 µg/mL in series [1] (Mus musculus, P388, read-out: inhibition of cell replication) was approximately 95%.
